Test results as given in patent publication US4409210A, “Antibiotic compound” (priority 1982, dated 1983).
In brackets after ≈: the same amount, converted by molar mass. Like-named read-outs stand apart in the source and are kept apart here.

How the values were obtained:
Type in all cases: cell-based
[1] = test system: Bacteroides fragilis A20926; assay: MIC, serial two-fold dilution method (anaerobic)
[2] = test system: Staphylococcus aureus #193; assay: MIC, serial two-fold dilution method (aerobic); conditions: read-out: minimum inhibitory concentration (MIC)
[3] = test system: Fusobacterium nucleatum A21906; assay: MIC, serial two-fold dilution method (anaerobic)
[4] = test system: Staphylococcus aureus A9748; assay: MIC, serial two-fold dilution method (aerobic)
[5] = test system: Clostridium perfringens A9635; assay: microbe, parasite or virus in culture; conditions: Clostridium perfringens, A9635, read-out: minimum inhibitory concentration (MIC)
[6] = test system: Clostridium difficile A21675; assay: MIC, serial two-fold dilution method (anaerobic); conditions: Clostridioides difficile
Experimental: (§1) The minimum inhibitory concentration (MIC) of Bu-2517 was determined for a variety of aerobic and anaerobic bacteria by the serial two-fold dilution method using a multi-inoculating apparatus. Mueller-Hinton agar was generally used for aerobic bacteria, GC medium (Eiken) for fastidious aerobic organisms such as streptococci, Neisseria and Haemophilus species, and GAM agar medium (Nissui) for anaerobic bacteria. The inoculum size was adjusted to 10^6 CFU/ml for streptococci, Neisseria and Haemophilus species, 10^4 for other aerobic bacteria and 10^7 -10^8 for all anaerobic organisms. Amphomycin, ampicillin, chloramphenicol, clindamycin, erthromycin, kanamycin and vancomycin were used as reference antibiotics.

[7] = test system: Clostridium chauvoei A9561; assay: MIC, serial two-fold dilution method (anaerobic)
Experimental: as §1

[8] = test system: Clostridium difficile A21972; assay: MIC, serial two-fold dilution method (anaerobic); conditions: Clostridioides difficile
Experimental: as §1

[9] = test system: Clostridium septicum A21869; assay: MIC, serial two-fold dilution method (anaerobic)
Experimental: as §1

[10] = test system: Proteus mirabilis A9554; assay: MIC, serial two-fold dilution method (aerobic)
[11] = test system: Staphylococcus aureus A9856; assay: MIC, serial two-fold dilution method (aerobic)
[12] = test system: Veillonella parvula A20010; assay: MIC, serial two-fold dilution method (anaerobic)
[13] = test system: Bacteroides fragilis A22053; assay: MIC, serial two-fold dilution method (anaerobic)
[14] = test system: Proteus vulgaris A9436; assay: MIC, serial two-fold dilution method (aerobic)
[15] = test system: Veillonella alcalescens A21914-1; assay: MIC, serial two-fold dilution method (anaerobic); conditions: Veillonella parvula
[16] = test system: Bacillus subtilis ATCC 6633; assay: MIC, serial two-fold dilution method (aerobic)
[17] = test system: Peptococcus magnas A21676; assay: MIC, serial two-fold dilution method (anaerobic); conditions: read-out: minimum inhibitory concentration (MIC)
[18] = test system: Fusobacterium varium ATCC 8501; assay: MIC, serial two-fold dilution method (anaerobic)
[19] = test system: Staphylococcus aureus BX-1633; assay: MIC, serial two-fold dilution method (aerobic)
[20] = test system: Sarcina lutea PCI-1001; assay: MIC, serial two-fold dilution method (aerobic); conditions: Micrococcus luteus
[21] = test system: Bacteroides fragilis A21900; assay: MIC, serial two-fold dilution method (anaerobic)
[22] = test system: Bacteroides fragilis CUH-9; assay: MIC, serial two-fold dilution method (anaerobic)
[23] = test system: Staphylococcus aureus A22421; assay: MIC, serial two-fold dilution method (aerobic)
[24] = test system: Clostridium ramosum A21970; assay: MIC, serial two-fold dilution method (anaerobic); conditions: Thomasclavelia ramosa
[25] = test system: Clostridium perfringens A22787; assay: microbe, parasite or virus in culture; conditions: Clostridium perfringens, A22787, read-out: minimum inhibitory concentration (MIC)
[26] = test system: Bacteroides fragilis A22695; assay: MIC, serial two-fold dilution method (anaerobic)

## CN[C@H](CC(C)C)C(=O)N[C@H]1C(=O)N[C@@H](CC(N)=O)C(=O)N[C@H]2C(=O)N[C@H]3C(=O)N[C@H](C(=O)N[C@H](C(=O)O)c4cc(O)cc(O)c4-c4cc3ccc4O)[C@H](O)c3ccc(c(Cl)c3)Oc3cc2cc(c3O[C@@H]2O[C@H](CO)[C@@H](O)[C@H](O)[C@H]2O[C@H]2C[C@](C)(N)[C@H](O)[C@H](C)O2)Oc2ccc(cc2Cl)[C@H]1O [Vancomycin]
[1]; Bacteroides fragilis, A20926, read-out: minimum inhibitory concentration (MIC)
  MIC: 3.1 µg/mL (≈ 2.14 µM)
[2]; Staphylococcus aureus
  MIC: 0.8 µg/mL (≈ 0.552 µM)
[3]; Fusobacterium nucleatum, A21906, read-out: minimum inhibitory concentration (MIC)
  MIC: 0.8 µg/mL (≈ 0.552 µM)
[4]; Staphylococcus aureus, A9748, read-out: minimum inhibitory concentration (MIC)
  MIC: 0.8 µg/mL (≈ 0.552 µM)
[5]
  MIC: 1.6 µg/mL (≈ 1.1 µM)
[6]; A21675, read-out: minimum inhibitory concentration (MIC)
  MIC: 0.8 µg/mL (≈ 0.552 µM)
[7]; Clostridium chauvoei, A9561, read-out: minimum inhibitory concentration (MIC)
  MIC: 0.8 µg/mL (≈ 0.552 µM)
[8]; A21972, read-out: minimum inhibitory concentration (MIC)
  MIC: 1.6 µg/mL (≈ 1.1 µM)
[9]; Clostridium septicum, A21869, read-out: minimum inhibitory concentration (MIC)
  MIC: 0.8 µg/mL (≈ 0.552 µM)
[10]; Proteus mirabilis, A9554, read-out: minimum inhibitory concentration (MIC)
  MIC: > 100 µg/mL
[11]; Staphylococcus aureus, A9856, read-out: minimum inhibitory concentration (MIC)
  MIC: 0.8 µg/mL (≈ 0.552 µM)
[12]; Veillonella parvula, A20010, read-out: minimum inhibitory concentration (MIC)
  MIC: 0.8 µg/mL (≈ 0.552 µM)
[13]; Bacteroides fragilis, A22053, read-out: minimum inhibitory concentration (MIC)
  MIC: 50 µg/mL (≈ 34.5 µM)
[14]; Proteus vulgaris, A9436, read-out: minimum inhibitory concentration (MIC)
  MIC: > 100 µg/mL
[15]; A219141, read-out: minimum inhibitory concentration (MIC)
  MIC: 1.6 µg/mL (≈ 1.1 µM)
[16]; Bacillus subtilis, ATCC6633, read-out: minimum inhibitory concentration (MIC)
  MIC: 0.1 µg/mL (≈ 0.069 µM)
[17]
  MIC: < 0.05 µg/mL
[18]; Fusobacterium varium, ATCC8501, read-out: minimum inhibitory concentration (MIC)
  MIC: 6.3 µg/mL (≈ 4.35 µM)
[19]; Staphylococcus aureus, BX1633, read-out: minimum inhibitory concentration (MIC)
  MIC: 0.8 µg/mL (≈ 0.552 µM)
[20]; PCI1001, read-out: minimum inhibitory concentration (MIC)
  MIC: 0.4 µg/mL (≈ 0.276 µM)
[21]; Bacteroides fragilis, A21900, read-out: minimum inhibitory concentration (MIC)
  MIC: 6.3 µg/mL (≈ 4.35 µM)
[22]; Bacteroides fragilis, CUH9, read-out: minimum inhibitory concentration (MIC)
  MIC: 50 µg/mL (≈ 34.5 µM)
[23]; Staphylococcus aureus, A22421, read-out: minimum inhibitory concentration (MIC)
  MIC: 0.8 µg/mL (≈ 0.552 µM)
[24]; A21970, read-out: minimum inhibitory concentration (MIC)
  MIC: > 100 µg/mL
[25]
  MIC: 0.8 µg/mL (≈ 0.552 µM)
[26]; Bacteroides fragilis, A22695, read-out: minimum inhibitory concentration (MIC)
  MIC: 25 µg/mL (≈ 17.3 µM)

## CC[C@H]1OC(=O)[C@H](C)[C@@H](O[C@H]2C[C@@](C)(OC)[C@@H](O)[C@H](C)O2)[C@H](C)[C@@H](O[C@@H]2O[C@H](C)C[C@H](N(C)C)[C@H]2O)[C@](C)(O)C[C@@H](C)C(=O)[C@H](C)[C@@H](O)[C@]1(C)O [Erythromycin]
[1]; Bacteroides fragilis A20926, GAM agar medium, inoculum 10^7-10^8, read-out: minimum inhibitory concentration (MIC)
  MIC: < 0.05 µg/mL
[2]; Staphylococcus aureus #193, Mueller-Hinton agar, inoculum 10^4
  MIC: 0.4 µg/mL (≈ 0.545 µM)
[3]; Fusobacterium nucleatum A21906, GAM agar medium, inoculum 10^7-10^8, read-out: minimum inhibitory concentration (MIC)
  MIC: 1.6 µg/mL (≈ 2.18 µM)
[4]; Staphylococcus aureus A9748, Mueller-Hinton agar, inoculum 10^4, read-out: minimum inhibitory concentration (MIC)
  MIC: 0.4 µg/mL (≈ 0.545 µM)
[5]
  MIC: 0.8 µg/mL (≈ 1.09 µM)
[6]; Clostridium difficile A21675, GAM agar medium, inoculum 10^7-10^8, read-out: minimum inhibitory concentration (MIC)
  MIC: > 100 µg/mL
[7]; Clostridium chauvoei A9561, GAM agar medium, inoculum 10^7-10^8, read-out: minimum inhibitory concentration (MIC)
  MIC: 1.6 µg/mL (≈ 2.18 µM)
[8]; Clostridium difficile A21972, GAM agar medium, inoculum 10^7-10^8, read-out: minimum inhibitory concentration (MIC)
  MIC: 3.1 µg/mL (≈ 4.22 µM)
[9]; Clostridium septicum A21869, GAM agar medium, inoculum 10^7-10^8, read-out: minimum inhibitory concentration (MIC)
  MIC: 0.8 µg/mL (≈ 1.09 µM)
[10]; Proteus mirabilis A9554, Mueller-Hinton agar, inoculum 10^4, read-out: minimum inhibitory concentration (MIC)
  MIC: > 100 µg/mL
[11]; Staphylococcus aureus A9856, Mueller-Hinton agar, inoculum 10^4, read-out: minimum inhibitory concentration (MIC)
  MIC: 0.2 µg/mL (≈ 0.273 µM)
[12]; Veillonella parvula A20010, GAM agar medium, inoculum 10^7-10^8, read-out: minimum inhibitory concentration (MIC)
  MIC: 3.1 µg/mL (≈ 4.22 µM)
[13]; Bacteroides fragilis A22053, GAM agar medium, inoculum 10^7-10^8, read-out: minimum inhibitory concentration (MIC)
  MIC: 3.1 µg/mL (≈ 4.22 µM)
[14]; Proteus vulgaris A9436, Mueller-Hinton agar, inoculum 10^4, read-out: minimum inhibitory concentration (MIC)
  MIC: 100 µg/mL (≈ 136 µM)
[15]; A219141, Veillonella alcalescens A21914-1, GAM agar medium, inoculum 10^7-10^8, read-out: minimum inhibitory concentration (MIC)
  MIC: 0.2 µg/mL (≈ 0.273 µM)
[16]; ATCC6633, Bacillus subtilis ATCC 6633, Mueller-Hinton agar, inoculum 10^4, read-out: minimum inhibitory concentration (MIC)
  MIC: < 0.05 µg/mL
[17]; Peptococcus magnas A21676, GAM agar medium, inoculum 10^7-10^8
  MIC: 0.8 µg/mL (≈ 1.09 µM)
[18]; ATCC8501, Fusobacterium varium ATCC 8501, GAM agar medium, inoculum 10^7-10^8, read-out: minimum inhibitory concentration (MIC)
  MIC: 1.6 µg/mL (≈ 2.18 µM)
[19]; BX1633, Staphylococcus aureus BX-1633, Mueller-Hinton agar, inoculum 10^4, read-out: minimum inhibitory concentration (MIC)
  MIC: 0.2 µg/mL (≈ 0.273 µM)
[20]; PCI1001, Sarcina lutea PCI-1001, Mueller-Hinton agar, inoculum 10^4, read-out: minimum inhibitory concentration (MIC)
  MIC: < 0.05 µg/mL
[21]; Bacteroides fragilis A21900, GAM agar medium, inoculum 10^7-10^8, read-out: minimum inhibitory concentration (MIC)
  MIC: 0.4 µg/mL (≈ 0.545 µM)
[22]; CUH9, Bacteroides fragilis CUH-9, GAM agar medium, inoculum 10^7-10^8, read-out: minimum inhibitory concentration (MIC)
  MIC: 6.3 µg/mL (≈ 8.58 µM)
[23]; Staphylococcus aureus A22421, Mueller-Hinton agar, inoculum 10^4, read-out: minimum inhibitory concentration (MIC)
  MIC: 6.3 µg/mL (≈ 8.58 µM)
[24]; Clostridium ramosum A21970, GAM agar medium, inoculum 10^7-10^8, read-out: minimum inhibitory concentration (MIC)
  MIC: 0.1 µg/mL (≈ 0.136 µM)
[25]
  MIC: > 100 µg/mL
[26]; Bacteroides fragilis A22695, GAM agar medium, inoculum 10^7-10^8, read-out: minimum inhibitory concentration (MIC)
  MIC: 3.1 µg/mL (≈ 4.22 µM)
